Test results from paper PMC6478789, “A chemical toolbox for the study of bromodomains and epigenetic signaling” (Nature Communications, 2019).
Read-outs that look alike come from different tables or passages of the source. Blank lines part the entries; values can stand above or below the molecule they belong to.

Columns and labels:
ATAD2A = target: T1, ATAD2A (Homo sapiens, UniProt Q6PL18); assay: BROMOscan ligand-binding assay
T1 sequence (Q6PL18 980-1092 limits assumed): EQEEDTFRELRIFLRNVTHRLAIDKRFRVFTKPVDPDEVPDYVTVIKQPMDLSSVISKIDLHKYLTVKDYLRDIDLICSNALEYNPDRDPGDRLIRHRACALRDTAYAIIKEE
Description: (§1) BROMOscan is a binding assay based on the well-known KINOMEscan technology. This assay measures the binding of a DNA-tagged bromodomain to an immobilized BRD ligand. If an inhibitor is present, it will compete with the bromodomain binding to the immobilized ligand, resulting in reduction of a quantitative PCR (qPCR) signal in a dose-dependent manner.

ATAD2B = target: T2, ATAD2B (Homo sapiens, UniProt Q9ULI0); assay: BROMOscan ligand-binding assay
T2 sequence (Q9ULI0 951-1066 limits assumed): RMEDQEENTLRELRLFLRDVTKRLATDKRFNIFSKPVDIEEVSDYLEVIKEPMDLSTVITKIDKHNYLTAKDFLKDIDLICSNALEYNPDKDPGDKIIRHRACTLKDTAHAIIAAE
Description: as §1

BAZ2A = target: T3, BAZ2A (Homo sapiens, UniProt Q9UIF9); assay: BROMOscan ligand-binding assay
T3 sequence (Q9UIF9 1793-1897 limits assumed): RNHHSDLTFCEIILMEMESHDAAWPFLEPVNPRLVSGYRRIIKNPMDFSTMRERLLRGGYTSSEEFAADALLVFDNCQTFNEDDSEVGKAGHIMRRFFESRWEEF
Description: as §1

BRD2(1) = BRD2(1) (Homo sapiens, UniProt P25440); assay: BROMOscan ligand-binding assay
BRD2(1), sequence (P25440 74-180 limits assumed): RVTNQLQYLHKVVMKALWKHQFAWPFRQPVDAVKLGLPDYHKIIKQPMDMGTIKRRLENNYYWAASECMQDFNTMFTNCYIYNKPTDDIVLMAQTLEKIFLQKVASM
Description: as §1

BRD3(2) = BRD3(2) (Homo sapiens, UniProt Q15059); assay: BROMOscan ligand-binding assay; settings: BROMOscan, BRD3(2)
BRD3(2), sequence (Q15059 306-415 limits assumed): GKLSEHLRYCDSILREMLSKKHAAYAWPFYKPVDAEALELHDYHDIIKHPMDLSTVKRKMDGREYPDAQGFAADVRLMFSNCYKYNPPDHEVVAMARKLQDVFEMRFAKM
Description: as §1

BRD4(fl) = BRD4(fl) (Homo sapiens, UniProt O60885); assay: BROMOscan ligand-binding assay
Description: as §1

BRD8(1) = BRD8(1) (Homo sapiens, UniProt Q9H0E9); assay: BROMOscan ligand-binding assay
BRD8(1), sequence (Q9H0E9 706-811 limits assumed): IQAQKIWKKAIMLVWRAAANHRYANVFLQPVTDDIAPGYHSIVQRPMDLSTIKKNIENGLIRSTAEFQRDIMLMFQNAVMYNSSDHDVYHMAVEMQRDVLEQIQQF
Description: as §1

GCN5L2 [1] = target: T4, GCN5L2 (Homo sapiens, UniProt Q92830); assay: BROMOscan ligand-binding assay
T4 sequence (Q92830 728-832 limits assumed): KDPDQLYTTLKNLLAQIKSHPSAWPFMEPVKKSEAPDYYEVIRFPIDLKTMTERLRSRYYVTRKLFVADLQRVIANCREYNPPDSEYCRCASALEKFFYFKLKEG
Description: as §1

PBRM1(2) = PBRM1(2) (Homo sapiens, UniProt Q86U86); assay: BROMOscan ligand-binding assay
PBRM1(2), sequence (Q86U86 177-287 limits assumed): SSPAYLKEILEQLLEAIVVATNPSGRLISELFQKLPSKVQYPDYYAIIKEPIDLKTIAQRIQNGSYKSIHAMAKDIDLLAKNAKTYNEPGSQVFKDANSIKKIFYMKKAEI
Description: as §1

PCAF = target: T5, PCAF (Homo sapiens, UniProt Q92831); assay: BROMOscan ligand-binding assay
T5 sequence (Q92831 723-827 limits assumed): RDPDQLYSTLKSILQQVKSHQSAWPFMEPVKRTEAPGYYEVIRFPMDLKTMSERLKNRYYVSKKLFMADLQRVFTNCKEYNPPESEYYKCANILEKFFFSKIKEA
Description: as §1

SMARCA2 = SMARCA2 (Homo sapiens, UniProt P51531); assay: BROMOscan ligand-binding assay
SMARCA2, sequence (P51531 1-1572 isoform P51531-2): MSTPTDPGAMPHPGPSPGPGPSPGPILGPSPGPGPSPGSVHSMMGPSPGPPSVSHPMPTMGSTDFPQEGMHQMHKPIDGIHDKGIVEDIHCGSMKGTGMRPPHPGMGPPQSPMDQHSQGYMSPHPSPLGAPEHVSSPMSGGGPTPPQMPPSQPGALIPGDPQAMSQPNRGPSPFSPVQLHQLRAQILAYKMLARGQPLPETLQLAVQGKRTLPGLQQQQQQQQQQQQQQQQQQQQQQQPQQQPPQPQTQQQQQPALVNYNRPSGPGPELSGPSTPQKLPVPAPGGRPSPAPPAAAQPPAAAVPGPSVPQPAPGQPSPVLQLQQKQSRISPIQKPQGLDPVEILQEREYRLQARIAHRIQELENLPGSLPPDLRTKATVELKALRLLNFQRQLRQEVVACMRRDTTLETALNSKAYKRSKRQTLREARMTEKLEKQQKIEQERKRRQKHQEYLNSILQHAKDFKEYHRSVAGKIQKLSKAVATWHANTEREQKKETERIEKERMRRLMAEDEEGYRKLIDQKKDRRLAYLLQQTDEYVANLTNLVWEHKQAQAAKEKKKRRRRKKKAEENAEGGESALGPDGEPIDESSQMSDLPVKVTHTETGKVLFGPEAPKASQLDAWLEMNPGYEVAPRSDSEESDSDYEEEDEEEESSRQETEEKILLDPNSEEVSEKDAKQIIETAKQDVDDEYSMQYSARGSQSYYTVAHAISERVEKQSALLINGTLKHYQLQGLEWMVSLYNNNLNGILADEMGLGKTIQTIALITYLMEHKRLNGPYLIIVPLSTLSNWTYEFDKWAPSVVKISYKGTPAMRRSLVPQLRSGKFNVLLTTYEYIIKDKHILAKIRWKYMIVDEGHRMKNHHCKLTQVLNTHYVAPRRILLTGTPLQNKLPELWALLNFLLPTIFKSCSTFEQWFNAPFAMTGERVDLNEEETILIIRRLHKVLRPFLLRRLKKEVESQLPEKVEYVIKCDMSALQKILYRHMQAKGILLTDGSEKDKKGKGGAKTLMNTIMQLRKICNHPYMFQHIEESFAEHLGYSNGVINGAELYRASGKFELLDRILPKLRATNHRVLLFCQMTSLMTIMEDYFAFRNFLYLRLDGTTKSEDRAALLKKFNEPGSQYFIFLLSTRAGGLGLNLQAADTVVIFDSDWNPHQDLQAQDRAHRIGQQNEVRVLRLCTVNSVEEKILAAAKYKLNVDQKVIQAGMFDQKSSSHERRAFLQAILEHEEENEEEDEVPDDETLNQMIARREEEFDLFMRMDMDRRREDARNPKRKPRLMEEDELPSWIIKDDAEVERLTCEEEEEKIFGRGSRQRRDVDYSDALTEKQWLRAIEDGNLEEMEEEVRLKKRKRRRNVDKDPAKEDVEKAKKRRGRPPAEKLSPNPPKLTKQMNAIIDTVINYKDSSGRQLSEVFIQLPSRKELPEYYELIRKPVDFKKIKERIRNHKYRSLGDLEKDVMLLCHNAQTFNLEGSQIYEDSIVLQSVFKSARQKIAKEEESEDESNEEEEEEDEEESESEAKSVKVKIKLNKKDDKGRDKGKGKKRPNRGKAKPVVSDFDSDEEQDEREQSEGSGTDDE
Description: as §1

TRIM24(PHD,BRD) = target: T6, TRIM24(PHD,BRD) (Homo sapiens, UniProt O15164); assay: BROMOscan ligand-binding assay; settings: TRIM24(PHD,Bromo.)
T6 sequence (O15164 824-1006 limits assumed): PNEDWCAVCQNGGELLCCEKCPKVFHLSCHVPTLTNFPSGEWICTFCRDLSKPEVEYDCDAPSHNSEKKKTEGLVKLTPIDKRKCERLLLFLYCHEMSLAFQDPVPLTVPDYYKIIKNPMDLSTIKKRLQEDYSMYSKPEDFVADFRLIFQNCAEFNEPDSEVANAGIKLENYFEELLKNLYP
Description: as §1

EP300 = EP300 (Homo sapiens, UniProt Q09472); assay: Histone acetyltransferase (HAT) activity assay; type: biochemical; settings: read-out: HATs Activity (%);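 further: selectivity screen of bromodomain probe compounds against histone acetyltransferases, with enzyme activity given in percent for compounds tested at 1 and 10 µM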
HAT1 = target: T7, HAT1 (Homo sapiens, UniProt O14929); assay: Histone acetyltransferase (HAT) activity assay; type: biochemical; settings: read-out: HATs Activity (%);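 further: HAT selectivity screen of BRD probe compounds, enzyme activity in % measured with compound at 1 µM and 10 µM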
T7 sequence (O14929 1-419): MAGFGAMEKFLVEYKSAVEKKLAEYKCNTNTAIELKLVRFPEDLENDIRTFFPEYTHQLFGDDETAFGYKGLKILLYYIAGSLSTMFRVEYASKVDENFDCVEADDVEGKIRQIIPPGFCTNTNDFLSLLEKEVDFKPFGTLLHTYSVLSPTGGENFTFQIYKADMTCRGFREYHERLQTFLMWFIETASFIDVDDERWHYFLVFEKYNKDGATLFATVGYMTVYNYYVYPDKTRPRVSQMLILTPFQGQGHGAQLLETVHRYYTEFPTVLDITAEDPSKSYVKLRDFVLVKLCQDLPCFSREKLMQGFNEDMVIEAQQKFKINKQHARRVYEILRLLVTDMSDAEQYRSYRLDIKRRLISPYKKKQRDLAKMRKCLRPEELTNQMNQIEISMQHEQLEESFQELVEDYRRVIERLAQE

MYST1 = target: T8, MYST1 (Homo sapiens, UniProt Q9H7Z6); assay: Histone acetyltransferase (HAT) activity assay; type: biochemical; settings: read-out: HATs Activity (%);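 further: selectivity screen across a panel of histone acetyltransferases, with compounds tested at 1 and 10 µM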
T8 sequence (Q9H7Z6 1-458): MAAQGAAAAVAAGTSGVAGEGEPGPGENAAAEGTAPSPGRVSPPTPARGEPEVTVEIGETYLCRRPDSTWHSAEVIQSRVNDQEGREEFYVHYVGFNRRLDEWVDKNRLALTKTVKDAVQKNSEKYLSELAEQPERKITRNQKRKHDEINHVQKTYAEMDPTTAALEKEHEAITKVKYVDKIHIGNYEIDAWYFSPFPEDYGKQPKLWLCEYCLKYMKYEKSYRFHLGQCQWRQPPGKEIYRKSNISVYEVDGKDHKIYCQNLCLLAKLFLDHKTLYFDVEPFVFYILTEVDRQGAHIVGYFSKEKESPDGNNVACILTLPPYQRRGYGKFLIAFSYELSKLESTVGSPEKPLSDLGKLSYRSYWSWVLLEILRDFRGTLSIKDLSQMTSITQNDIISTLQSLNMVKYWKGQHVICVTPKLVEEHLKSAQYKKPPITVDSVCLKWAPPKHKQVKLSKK

MYST3 = MYST3 (Homo sapiens, UniProt Q92794); assay: Histone acetyltransferase (HAT) activity assay; type: biochemical; settings: read-out: HATs Activity (%);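 further: selectivity screen of bromodomain probe compounds across a panel of histone acetyltransferases, read out as enzyme activity in %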
MYST3, sequence (Q92794 whole entry, species assumed): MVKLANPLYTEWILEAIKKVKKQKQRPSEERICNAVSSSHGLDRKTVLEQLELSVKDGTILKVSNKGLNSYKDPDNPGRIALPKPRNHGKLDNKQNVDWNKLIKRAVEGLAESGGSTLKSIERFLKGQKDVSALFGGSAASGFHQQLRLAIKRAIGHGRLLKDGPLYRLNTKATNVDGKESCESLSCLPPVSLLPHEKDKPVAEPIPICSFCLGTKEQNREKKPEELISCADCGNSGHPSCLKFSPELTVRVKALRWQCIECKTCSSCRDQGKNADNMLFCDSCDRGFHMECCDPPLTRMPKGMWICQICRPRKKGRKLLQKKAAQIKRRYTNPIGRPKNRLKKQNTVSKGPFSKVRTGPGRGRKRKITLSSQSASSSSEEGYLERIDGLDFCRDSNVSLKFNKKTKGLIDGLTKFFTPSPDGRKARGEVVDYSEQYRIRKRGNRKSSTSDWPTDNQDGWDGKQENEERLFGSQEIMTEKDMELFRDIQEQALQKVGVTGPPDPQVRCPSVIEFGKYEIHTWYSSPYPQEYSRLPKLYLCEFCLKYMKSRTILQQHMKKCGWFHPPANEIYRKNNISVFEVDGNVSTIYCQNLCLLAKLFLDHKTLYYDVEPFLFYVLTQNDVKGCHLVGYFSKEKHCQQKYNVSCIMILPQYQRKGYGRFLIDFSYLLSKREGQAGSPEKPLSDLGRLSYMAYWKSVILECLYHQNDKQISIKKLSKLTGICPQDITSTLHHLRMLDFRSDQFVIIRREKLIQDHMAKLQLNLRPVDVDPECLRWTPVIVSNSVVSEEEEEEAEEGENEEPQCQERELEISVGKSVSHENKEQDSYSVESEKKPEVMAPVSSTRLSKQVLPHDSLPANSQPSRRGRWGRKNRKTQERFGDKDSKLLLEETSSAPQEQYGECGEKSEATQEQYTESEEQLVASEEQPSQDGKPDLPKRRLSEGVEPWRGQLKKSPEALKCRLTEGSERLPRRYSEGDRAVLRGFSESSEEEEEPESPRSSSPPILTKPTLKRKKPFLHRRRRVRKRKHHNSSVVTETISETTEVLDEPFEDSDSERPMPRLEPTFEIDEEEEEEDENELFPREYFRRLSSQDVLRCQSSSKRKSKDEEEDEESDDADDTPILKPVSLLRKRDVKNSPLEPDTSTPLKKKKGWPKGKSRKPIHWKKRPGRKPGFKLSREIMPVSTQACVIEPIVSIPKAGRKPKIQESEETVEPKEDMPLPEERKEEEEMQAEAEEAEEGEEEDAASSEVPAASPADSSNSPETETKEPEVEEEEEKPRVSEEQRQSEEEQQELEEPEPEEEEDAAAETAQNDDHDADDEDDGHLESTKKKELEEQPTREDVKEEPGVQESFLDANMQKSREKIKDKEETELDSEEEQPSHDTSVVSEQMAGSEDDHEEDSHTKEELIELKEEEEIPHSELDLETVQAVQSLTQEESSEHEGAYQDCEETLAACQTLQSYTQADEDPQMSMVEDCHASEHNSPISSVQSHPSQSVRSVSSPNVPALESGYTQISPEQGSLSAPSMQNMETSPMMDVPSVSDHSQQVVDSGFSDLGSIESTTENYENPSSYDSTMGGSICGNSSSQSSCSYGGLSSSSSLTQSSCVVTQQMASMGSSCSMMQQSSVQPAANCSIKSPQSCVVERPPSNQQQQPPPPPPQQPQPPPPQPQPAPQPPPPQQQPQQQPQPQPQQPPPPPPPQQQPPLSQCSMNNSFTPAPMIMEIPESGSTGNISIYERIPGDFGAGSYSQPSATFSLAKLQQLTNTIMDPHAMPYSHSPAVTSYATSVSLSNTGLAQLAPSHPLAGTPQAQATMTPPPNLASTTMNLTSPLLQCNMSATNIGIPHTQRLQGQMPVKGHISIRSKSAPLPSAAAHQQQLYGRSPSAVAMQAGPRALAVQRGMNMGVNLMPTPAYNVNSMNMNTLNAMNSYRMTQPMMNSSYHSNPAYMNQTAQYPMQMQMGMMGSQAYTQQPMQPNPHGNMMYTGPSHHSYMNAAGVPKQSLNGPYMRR

GCN5L2 [2] = target: GCN5L2 (Homo sapiens, UniProt Q92830); assay: Histone acetyltransferase (HAT) activity assay; type: biochemical; settings: read-out: HATs Activity (%);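 further: selectivity screen of BRD probe compounds across a panel of histone acetyltransferases, HAT activity in % with compound at 1 or 10 µM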
Target sequence in this assay (Q92830 whole entry, species assumed, the tested form may be a part): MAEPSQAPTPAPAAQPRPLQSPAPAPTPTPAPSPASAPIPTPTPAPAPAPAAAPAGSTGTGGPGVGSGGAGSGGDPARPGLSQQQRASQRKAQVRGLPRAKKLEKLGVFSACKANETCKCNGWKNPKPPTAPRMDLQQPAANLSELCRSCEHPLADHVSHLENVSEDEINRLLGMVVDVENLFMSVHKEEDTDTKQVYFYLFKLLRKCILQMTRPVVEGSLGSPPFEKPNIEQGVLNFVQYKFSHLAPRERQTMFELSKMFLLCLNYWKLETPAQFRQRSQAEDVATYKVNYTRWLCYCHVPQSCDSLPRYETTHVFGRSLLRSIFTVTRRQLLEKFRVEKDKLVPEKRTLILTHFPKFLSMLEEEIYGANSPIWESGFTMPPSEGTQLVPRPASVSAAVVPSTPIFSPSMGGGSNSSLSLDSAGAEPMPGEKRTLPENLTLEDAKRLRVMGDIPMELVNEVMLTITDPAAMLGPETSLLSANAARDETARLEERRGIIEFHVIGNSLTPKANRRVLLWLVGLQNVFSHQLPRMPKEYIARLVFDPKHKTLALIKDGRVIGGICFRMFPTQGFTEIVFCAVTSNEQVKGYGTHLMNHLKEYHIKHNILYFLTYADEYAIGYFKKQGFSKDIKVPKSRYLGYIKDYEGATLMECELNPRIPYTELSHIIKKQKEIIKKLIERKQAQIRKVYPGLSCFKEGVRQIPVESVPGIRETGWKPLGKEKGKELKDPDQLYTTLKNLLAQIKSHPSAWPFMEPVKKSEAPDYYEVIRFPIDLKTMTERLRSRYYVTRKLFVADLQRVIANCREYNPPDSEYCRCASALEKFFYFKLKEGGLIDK

BRPF1 = BRPF1 (Homo sapiens, UniProt P55201); assay: Temperature shift assay (non-BRD reader domains); type: binding; settings: 10µM compound
BRPF1, sequence (P55201 1085-1168 limits assumed, species assumed): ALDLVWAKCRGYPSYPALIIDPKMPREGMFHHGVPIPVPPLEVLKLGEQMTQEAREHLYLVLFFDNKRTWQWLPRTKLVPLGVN

[3] = KD (BROMOscan), sheet prints no unit (nM)

- Kd (ATAD2A; BROMOscan, ATAD2A): > 30000 nM
- Kd (ATAD2B; BROMOscan, ATAD2B): > 30000 nM
- Kd (BAZ2A; BROMOscan, BAZ2A): > 30 µM
- Kd (BRD2(1); BROMOscan, BRD2(1)): > 30 µM
- Kd (BRD3(2)): > 30000 nM
- Kd (BRD4(fl); BROMOscan, BRD4(full-length,short-iso.)): > 30 µM
- Kd (BRD8(1); BROMOscan, BRD8(1)): > 30000 nM
- Kd (GCN5L2 [1]; BROMOscan, GCN5L2): 23000 nM
- Kd (PBRM1(2); BROMOscan, PBRM1(2)): 170 nM
- Kd (PCAF; BROMOscan, PCAF): > 30000 nM
- Kd (SMARCA2; BROMOscan, SMARCA2): 49 nM
- Kd (TRIM24(PHD,BRD); BROMOscan): > 30 µM
SMILES: O=C(C=CN1[C@H]2CC[C@@H]1c1ncnc(NC3CC3)c1C2)c1ccccc1O [PFI-3 D1]

- activity at 1 µM (EP300): 98%
- activity at 10 µM (EP300): 92%
- activity at 1 µM (HAT1): 96%
- activity at 10 µM (HAT1): 97%
- activity at 1 µM (MYST1): 103%
- activity at 10 µM (MYST1): 97%
- activity at 1 µM (MYST3): 103%
- activity at 10 µM (MYST3): 103%
- activity at 1 µM (GCN5L2 [2]): 101%
- activity at 10 µM (GCN5L2 [2]): 101%
- Kd (ATAD2A; [3]): > 30000 nM
- Kd (ATAD2A; KD, BROMOscan, ATAD2A): > 100000 nM
- Kd (ATAD2B; [3]): > 30000 nM
- Kd (ATAD2B; KD, BROMOscan, ATAD2B): > 100000 nM
- Kd (BAZ2A): 69 µM
- Kd (BRD2(1)): 0.62 µM
- Kd (BRD3(2); KD): 2300 nM
- Kd (BRD4(fl)): 0.587 µM
- Kd (BRD8(1); [3]): > 30000 nM
- Kd (BRD8(1); KD, BROMOscan, BRD8(1)): > 100000 nM
- Kd (GCN5L2 [1]; [3]): > 30000 nM
- Kd (GCN5L2 [1]; KD, BROMOscan, GCN5L2): > 100000 nM
- Kd (PBRM1(2); [3]): > 30000 nM
- Kd (PBRM1(2); KD, BROMOscan, PBRM1(2)): > 100000 nM
- Kd (PCAF; [3]): > 30000 nM
- Kd (PCAF; KD, BROMOscan, PCAF): > 100000 nM
- Kd (SMARCA2; [3]): > 30000 nM
- Kd (SMARCA2; KD, BROMOscan, SMARCA2): > 100000 nM
- Kd (TRIM24(PHD,BRD); KD, BROMOscan): 6.5 µM
SMILES: COc1ccc(CCc2nc3cc(-c4c(C)noc4C)ccc3n2C[C@H](C)N2CCOCC2)cc1Cl [SGC-CBP30]

- Kd (ATAD2B; KD, ATAD2B): > 1.4e+07 nM
- Kd (BAZ2A): > 14000 µM
- Kd (BRD2(1)): > 14000 µM
- Kd (BRD4(fl)): > 14000 µM
- Kd (BRD8(1); KD, BRD8(1)): > 1.4e+07 nM
- Kd (GCN5L2 [1]; KD, GCN5L2): > 1.4e+07 nM
- Kd (PBRM1(2); KD, PBRM1(2)): 1e+06 nM
- Kd (PCAF; KD, PCAF): > 1.4e+07 nM
- Kd (SMARCA2; KD, SMARCA2): 250000 nM
- Kd (TRIM24(PHD,BRD); KD): > 14000 µM
SMILES: O=C(O)c1ccccc1O [Salicylic Acid]

- Tm (C) 10µM, temperature shift (BRPF1): -0.3 Kelvin
- activity at 1 µM (EP300): 99%
- activity at 10 µM (EP300): 95%
- activity at 1 µM (HAT1): 93%
- activity at 10 µM (HAT1): 100%
- activity at 1 µM (MYST1): 99%
- activity at 10 µM (MYST1): 97%
- activity at 1 µM (MYST3): 97%
- activity at 10 µM (MYST3): 99%
- activity at 1 µM (GCN5L2 [2]): 96%
- activity at 10 µM (GCN5L2 [2]): 92%
SMILES: CN(C)CCCOc1ccc(-c2cc(NCCCn3cccn3)nc(S(C)(=O)=O)n2)cc1 [TP-238]
